Laboratory results published in patent US8802597B2, “Herbicidal pyrimidines” (E I du Pont de Nemours and Company, priority 2003, dated 2014).
Where two headings read alike, the source gives them in different places.

Tests used:
Format in all cases: in vivo
[1] = test system: goosegrass (Eleusine indica); assay: Test C pre/postemergence; details: Eleusine indica; for pest or weed control at 31 g/ha: 31 g ai/ha; for pest or weed control at 62 g/ha: 62 g ai/ha; for pest or weed control at 125 g/ha: 125 g ai/ha; for pest or weed control at 250 g/ha: 250 g ai/ha
In short: (§1)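 We sprayed seeded pots preemergence and 2–18 cm seedlings postemergence with test chemicals in a non-phytotoxic solvent mixture including surfactant. Greenhouse plants were visually compared with untreated controls at 12 to 14 days and scored 0 (no effect) to 100 (complete control).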

corn (Zea mays) = assay: Test C pre/postemergence; details: Zea mays; for Corn plant response rating (crop injury, 0 = no effect, 100 = complete kill) at 31 g/ha: 31 g ai/ha; for Corn plant response rating (crop injury, 0 = no effect, 100 = complete kill) at 62 g/ha: 62 g ai/ha; for Corn plant response rating (crop injury, 0 = no effect, 100 = complete kill) at 125 g/ha: 125 g ai/ha; for Corn plant response rating (crop injury, 0 = no effect, 100 = complete kill) at 250 g/ha: 250 g ai/ha
In short: as §1

[2] = test system: lambsquarters (Chenopodium album); assay: Test C pre/postemergence; details: Chenopodium album; for pest or weed control at 31 g/ha: 31 g ai/ha; for pest or weed control at 62 g/ha: 62 g ai/ha; for pest or weed control at 125 g/ha: 125 g ai/ha; for pest or weed control at 250 g/ha: 250 g ai/ha
In short: as §1

soybean (Glycine max) = assay: Test C pre/postemergence; details: Glycine max; for plant injury at 31 g/ha: 31 g ai/ha; for plant injury at 62 g/ha: 62 g ai/ha; for plant injury at 125 g/ha: 125 g ai/ha; for plant injury at 250 g/ha: 250 g ai/ha
In short: as §1

[3] = test system: chickweed (Stellaria media); assay: Test C postemergence; details: Stellaria media, post-emergence
In short: as §1

[4] = post-emergence, Postemergence, scale 0 to 100 (0 no effect, 100 complete control), read-out: Goosegrass plant response rating
[5] = pre-emergence, Preemergence, scale 0 to 100, 0 no effect, 100 complete control, read-out: Plant response rating, Goosegrass
[6] = pre-emergence, Preemergence, scale 0 to 100, read-out: Plant response rating, Goosegrass
[7] = post-emergence, Postemergence, scale 0 to 100 (0 no effect, 100 complete control), read-out: Corn plant response rating
[8] = pre-emergence, Preemergence, scale 0 to 100, 0 no effect, 100 complete control, read-out: Plant response rating, Corn
[9] = post-emergence, Postemergence, scale 0 to 100 (0 no effect, 100 complete control), read-out: Lambsquarters plant response rating
[10] = pre-emergence, Preemergence, scale 0 to 100, 0 no effect, 100 complete control, read-out: Plant response rating, Lambsquarters
[11] = pre-emergence, Preemergence, scale 0 to 100, read-out: Plant response rating, Lambsquarters
[12] = post-emergence, Postemergence, scale 0 to 100 (0 no effect, 100 complete control), read-out: Soybean plant response rating
[13] = pre-emergence, Preemergence, scale 0 to 100, 0 no effect, 100 complete control, read-out: Plant response rating, Soybean
[14] = pre-emergence, Preemergence, scale 0 to 100, read-out: Plant response rating, Soybean

Compound: COC(=O)c1nc(C(C)C)nc(N)c1Br [Compound 3]
- pest or weed control at 31 g/ha ([1]; post-emergence, Postemergence, read-out: Plant response rating (scale of 0 to 100), Goosegrass): 0%
- pest or weed control at 62 g/ha [1, 4]: 0%
- pest or weed control at 125 g/ha [1, 4]: 0%
- pest or weed control at 250 g/ha ([1]; post-emergence, Postemergence, scale 0 to 100, read-out: Plant response rating, Goosegrass): 0%
- pest or weed control at 31 g/ha [1, 5]: 0%
- pest or weed control at 62 g/ha [1, 5]: 0%
- pest or weed control at 125 g/ha [1, 6]: 0%
- pest or weed control at 250 g/ha [1, 6]: 0%
- Corn plant response rating (crop injury, 0 = no effect, 100 = complete kill) at 31 g/ha (corn (Zea mays); post-emergence, Postemergence, read-out: Plant response rating (scale of 0 to 100), Corn): 0%
- Corn plant response rating (crop injury, 0 = no effect, 100 = complete kill) at 62 g/ha (corn (Zea mays); [7]): 0%
- Corn plant response rating (crop injury, 0 = no effect, 100 = complete kill) at 125 g/ha (corn (Zea mays); [7]): 0%
- Corn plant response rating (crop injury, 0 = no effect, 100 = complete kill) at 250 g/ha (corn (Zea mays); post-emergence, Postemergence, scale 0 to 100): 0%
- Corn plant response rating (crop injury, 0 = no effect, 100 = complete kill) at 31 g/ha (corn (Zea mays); [8]): 0%
- Corn plant response rating (crop injury, 0 = no effect, 100 = complete kill) at 62 g/ha (corn (Zea mays); [8]): 0%
- Corn plant response rating (crop injury, 0 = no effect, 100 = complete kill) at 125 g/ha (corn (Zea mays); pre-emergence, Preemergence, scale 0 to 100, read-out: Plant response rating, Corn): 0%
- Corn plant response rating (crop injury, 0 = no effect, 100 = complete kill) at 250 g/ha (corn (Zea mays); pre-emergence, Preemergence, scale 0 to 100): 0%
- pest or weed control at 31 g/ha ([2]; post-emergence, Postemergence, read-out: Plant response rating (scale of 0 to 100), Lambsquarters): 75%
- pest or weed control at 62 g/ha [2, 9]: 90%
- pest or weed control at 125 g/ha [2, 9]: 90%
- pest or weed control at 250 g/ha ([2]; post-emergence, Postemergence, scale 0 to 100, read-out: Plant response rating, Lambsquarters): 100%
- pest or weed control at 31 g/ha [2, 10]: 0%
- pest or weed control at 62 g/ha [2, 10]: 0%
- pest or weed control at 125 g/ha [2, 11]: 0%
- pest or weed control at 250 g/ha [2, 11]: 80%
- plant injury at 31 g/ha (soybean (Glycine max); post-emergence, Postemergence, read-out: Plant response rating (scale of 0 to 100), Soybean): 60%
- plant injury at 62 g/ha (soybean (Glycine max); [12]): 75%
- plant injury at 125 g/ha (soybean (Glycine max); [12]): 90%
- plant injury at 250 g/ha (soybean (Glycine max); post-emergence, Postemergence, scale 0 to 100, read-out: Plant response rating, Soybean): 95%
- plant injury at 31 g/ha (soybean (Glycine max); [13]): 0%
- plant injury at 62 g/ha (soybean (Glycine max); [13]): 0%
- plant injury at 125 g/ha (soybean (Glycine max); [14]): 15%
- plant injury at 250 g/ha (soybean (Glycine max); [14]): 20%
- pest or weed control at 31 g/ha ([3]; 31 g ai/ha, read-out: Plant response rating (scale of 0 to 100), Chickweed): 0%
- pest or weed control at 62 g/ha ([3]; 62 g ai/ha, scale 0 to 100 (0 no effect, 100 complete control), read-out: Chickweed plant response rating): 0%
- pest or weed control at 125 g/ha ([3]; 125 g ai/ha, scale 0 to 100, read-out: Plant response rating, Chickweed): 0%
- pest or weed control at 250 g/ha ([3]; 250 g ai/ha, scale 0 to 100, read-out: Plant response rating, Chickweed): 40%
